Results from BindingDB's records for patent US10435400 (Shanghai Haiyan Pharmaceutical Technology, 2019).

Target: Epidermal growth factor receptor (Homo sapiens, UniProt P00533)
Test: Wild Type EGFR and Mutant EGFR Kinase Inhibition Test

Sequence of Epidermal growth factor receptor (P00533 whole entry): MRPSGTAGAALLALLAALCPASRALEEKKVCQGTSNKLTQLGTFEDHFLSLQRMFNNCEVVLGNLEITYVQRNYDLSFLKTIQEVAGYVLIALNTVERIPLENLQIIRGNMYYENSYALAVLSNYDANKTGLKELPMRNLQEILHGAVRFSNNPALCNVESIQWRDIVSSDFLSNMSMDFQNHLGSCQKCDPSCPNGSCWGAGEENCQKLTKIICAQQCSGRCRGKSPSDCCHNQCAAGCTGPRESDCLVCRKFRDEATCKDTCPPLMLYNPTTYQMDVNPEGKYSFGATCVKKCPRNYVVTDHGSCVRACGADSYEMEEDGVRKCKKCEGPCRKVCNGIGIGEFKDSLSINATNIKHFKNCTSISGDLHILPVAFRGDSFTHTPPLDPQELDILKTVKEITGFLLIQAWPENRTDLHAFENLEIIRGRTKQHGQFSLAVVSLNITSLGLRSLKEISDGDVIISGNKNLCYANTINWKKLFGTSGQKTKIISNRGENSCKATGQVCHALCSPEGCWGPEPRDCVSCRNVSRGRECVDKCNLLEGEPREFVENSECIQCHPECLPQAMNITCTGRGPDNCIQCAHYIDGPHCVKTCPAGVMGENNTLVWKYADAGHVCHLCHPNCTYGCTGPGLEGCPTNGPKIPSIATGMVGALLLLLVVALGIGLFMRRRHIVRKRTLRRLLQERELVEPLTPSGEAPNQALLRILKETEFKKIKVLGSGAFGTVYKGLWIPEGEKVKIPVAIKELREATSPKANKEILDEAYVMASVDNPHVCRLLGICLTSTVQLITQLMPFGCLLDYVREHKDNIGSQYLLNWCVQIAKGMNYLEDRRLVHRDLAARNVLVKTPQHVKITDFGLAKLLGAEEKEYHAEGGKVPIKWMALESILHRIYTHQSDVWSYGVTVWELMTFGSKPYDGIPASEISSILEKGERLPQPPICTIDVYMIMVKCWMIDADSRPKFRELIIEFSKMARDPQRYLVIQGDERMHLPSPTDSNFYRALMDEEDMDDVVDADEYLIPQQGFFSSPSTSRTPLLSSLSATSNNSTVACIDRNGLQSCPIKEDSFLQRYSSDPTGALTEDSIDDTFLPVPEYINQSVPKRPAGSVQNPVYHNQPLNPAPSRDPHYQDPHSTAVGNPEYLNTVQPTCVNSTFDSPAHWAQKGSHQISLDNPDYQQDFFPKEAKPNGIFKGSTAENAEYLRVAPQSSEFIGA

IC50: 272 nM
Structure (SMILES): C=CC(=O)Nc1cc(Nc2ncc(Cl)c(-c3cnc4c(ccn4C)c3)n2)c(OC)cc1N1CCC(N(C)C)CC1 [US10435400, Compound Z-2]
